Measured values published in patent US9394338B2, “Glutathione analogs and uses thereof” (REGENTS OF THE UNIVERSITY OF MINNESOTA, priority 2011, dated 2016).

Columns and labels:
Assay type in all cases: in vivo
[1] = system: C57BL/6 mice; assay: Short-term toxicity / dose determination study; settings: i.p. 3×/week for two weeks, highest dose 2000 mg/Kg
Procedure: Dose Determination Study: Ψ-GSH was injected intraperitoneally and orally in wild type C57BL/6 mice (6-8 week old, 4/group) three times a week for two weeks. The doses of Ψ-GSH employed ranged from 100 mg/kg to 2000 mg/kg. Body weight (twice a week), complete blood count (CBC) analysis and liver, kidney and lung histology was considered to be indicative of toxicity from the drug treatment. Histological sections of tissue were analyzed by a board-certified pathologist at the Masonic Cancer Center-Comparative Pathology Shared Resource, University of Minnesota.

[2] = system: APP/PS1 mice; assay: Morris water maze; settings: for escape latency, hidden platform: 500 mg/Kg i.p. 3×/week
Procedure: (§1) Efficacy Study Design. To determine the effect of intraperitoneal and oral Ψ-GSH treatment, the study was divided in four groups (10 mice/group). 1. APP/PS1 mice-vehicle control, 2. APP/PS1 mice-Ψ-GSH i.p. 500 mg/kg, 3. APP/PS1 mice-Ψ-GSH oral 500 mg/kg, 4. Non-transgenic wild type mice-vehicle control. All the animals in the above-said groups were treated with saline or Ψ-GSH three times a week for 12 weeks, starting at the age of three to four months. Eleven weeks after the start of the treatment, the animals were tested in the Morris water maze, and twelve weeks after the start of the treatment, the animals were sacrificed for histopathological analysis.
Behavior Study. Eleven weeks after the beginning of the treatment, the animals were tested for one week in an open field water maze. The maze consists of a white circular tank (120 cm diameter) of water (23±1° C.) rendered opaque with nontoxic crayola paint. The mice were placed in the water at the edge of the pool and allowed to swim in order to locate a hidden, but fixed escape platform, using extra-maze cues.
On Day 1, the mice were be placed in the pool and allowed to swim freely for 60 s. If an animal could not locate the hidden platform within that time, it was placed manually upon the platform and left there for 10 s. Each animal was tested in four trials per day. The inter-trial interval was 15 min. Each start position was used equally in a pseudorandom order, and the animals were always placed in the water facing the wall. The platform was placed in the middle of northeast quadrant of the pool (approximately 30 cm from the side of the pool). The mouse's task throughout the experiment was to find and climb onto the platform, escaping the water. Once the mouse learned the task (Day 4, Trial 16), a probe trial was conducted 24 hours after the last trial of acquisition on Day 4.
In the probe trial (i.e., Trial 17, day 5), the platform was removed from the pool and animals were allowed to swim for 60 s. Their ability to remember the location of the previously present escape platform was quantified in proportion to the residence time of the mouse in the quadrant previously containing the platform. Immediately following the probe trial, visible platform was reintroduced at a different location (i.e southeast quadrant) along with a visible flag. Mice were trained to locate this cued platform in 4 trials conducted in the aforementioned manner.

[3] = system: APP/PS1 mice; assay: Amyloid-β1-42 ELISA of brain homogenate
Procedure: as §1
Amyloid-β1-42 ELISA. Total Aβ^1-42 in the brain was quantified by sandwich ELISA (Invitrogen, Carlsbad, Calif.) according to the manufacturer's instructions. Wild type and transgenic Alzheimer's mice brains were Dounce homogenized in phosphate buffered saline (PBS), pH 7.2, containing a mixture of protease inhibitors. Brain homogenates were centrifuged and supernatants were assayed for soluble Aβ^1-42 per manufacturers' protocols. […] The concentration of both PBS soluble and insoluble (guanidine soluble) Aβ^1-42 was calculated from a standard curve of human Aβ^1-42 and was normalized to the weight of the tissue employed.

[4] = system: APP/PS1 mice; assay: Brain lipid peroxidation (TBARS) assay
Procedure: as §1
Lipid Peroxidation Assay. The levels of lipid peroxidation were quantified by the thiobarbituric acid-reactive substances (TBARS) assay. Brain homogenate was treated with 2 ml of (1:1:1) ratio (TBA) thiobarbituric acid -(TCA) trichloroacetic acid -(HCl) chloridic acid reagent (TBA 0.37%, 0.25 N HCL and 15% TCA) and placed in water bath for 15 min, cooled and centrifuged and then clear supernatant was measured at 535 nm against reference blank. Protein was determined by the BCA protein assay kit. TBARS were normalized to the protein content in each sample and then expressed as percentage of the corresponding values in non-transgenic saline controls.

For N[C@@H](CNC(=O)N[C@@H](CS)C(=O)NCC(=O)O)C(=O)O [Ψ-GSH, γ-Gla-Cys-Gly-OH], the “ALT, AST, ALP, blood urea nitrogen (BUN) and creatinine levels” value [1] was “Unaffected”, the “Body weights and CBC” value [1] was “insignificantly affected” and the “Histopathology of lung, liver and kidney tissue vs saline-treated mice” value [1] was “no significant difference”. For the same compound, the “escape latency, hidden platform” value ([2]; APP-PS1 mice, day 3 of training) was 17.91 ± 4.65 s, the “escape latency, hidden platform” value ([2]; APP-PS1 mice, day 4 of training) was 14.64 ± 2.61 s and the “time in the target quadrant, probe trial” value ([2]; APP-PS1 mice, i.p., 24 h after training) was 38.43±3.73%. For the same compound, the path length ([2]; APP-PS1 mice, i.p., last day of training) was 2.69±0.47 m, the “Path lengths vs saline-treated controls” value ([2]; APP-PS1 mice, oral) was “insignificantly different” and the “escape latency, visible platform” value ([2]; APP/PS1 mice, i.p., end of four trials) was 6.75 ± 1.49 s. The “time in the target quadrant, probe trial” value ([2]; APP/PS1 mice, oral) was 21.76±5.36%, the “spatial memory development and escape latencies vs saline-treated group” value ([2]; APP/PS1 mice, oral 3×/week for 3 months, significant (p<0.05) on day 2 only) was “Trends toward higher spatial memory development and lower escape latencies” and the “insoluble Aβ1-42 in brain” value ([3]; i.p.) was 45.4±6.01 % of vehicle-treated APP/PS1 mice. For the same compound, the “insoluble Aβ1-42 concentration in brain” value ([3]; oral) was 90.80±6.72 % of vehicle treated APP/PS1 mice, the “TBARS levels in brain (WT saline = 100%)” value ([4]; i.p.) was 95.3±5.51% and the “levels of lipid peroxidation” value ([4]; oral) was “unaffected”.
